According to US9113629B2, “4-amino-6-(4-substituted-phenyl)-picolinates and 6-amino-2-(4-substituted-phenyl)-pyrimidine-4-carboxylates and their use as herbicides” (DOW AGROSCIENCES LLC, priority 2013, dated 2015):

test system: Key Broadleaf Weed and Crop Species; test: Post-emergent Test II herbicidal activity (Table 5); assay type: in vivo; details: post-emergence, 336 h; ABUTH: velvetleaf (Abutilon theophrasti); application rate 70 g ai/ha; post-emergent; 14 days after application; read-out: Visual Growth Reduction (%) 14 Days After Application, ABUTH
Method in brief: (§1)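 Compounds, dissolved in 97:3 acetone/DMSO and diluted into an aqueous carrier containing crop oil concentrate and Triton X-155, are applied over the top of young plants at 187 L/ha. Injury is scored visually at 14 d, 0% meaning no effect and 100% complete kill.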

SMILES | pest or weed control at 70 g/ha
COC(=O)c1nc(-c2cc(F)c(C)cc2F)nc(N)c1OC [Compound 185] | 30 to 44%

same assay, conditions: post-emergence, 336 h; ABUTH: velvetleaf (Abutilon theophrasti); application rate 140 g ai/ha; post-emergent; 14 days after application; read-out: Visual Growth Reduction (%) 14 Days After Application, ABUTH

SMILES | pest or weed control at 140 g/ha
COC(=O)c1nc(-c2cc(F)c(C)cc2F)nc(N)c1OC [Compound 185] | 45 to 59%

same assay, conditions: post-emergence, 336 h; AMARE: redroot pigweed (Amaranthus retroflexus); application rate 70 g ai/ha; post-emergent; 14 days after application; read-out: Visual Growth Reduction (%) 14 Days After Application, AMARE

SMILES | pest or weed control at 70 g/ha
COC(=O)c1nc(-c2cc(F)c(C)cc2F)nc(N)c1OC [Compound 185] | 0 to 29%

same assay, conditions: post-emergence, 336 h; AMARE: redroot pigweed (Amaranthus retroflexus); application rate 140 g ai/ha; post-emergent; 14 days after application; read-out: Visual Growth Reduction (%) 14 Days After Application, AMARE

SMILES | pest or weed control at 140 g/ha
COC(=O)c1nc(-c2cc(F)c(C)cc2F)nc(N)c1OC [Compound 185] | 0 to 29%

same assay, conditions: post-emergence, 336 h; BRSNN: oilseed-rape, canola (Brassica napus); application rate 70 g ai/ha; post-emergent; 14 days after application; read-out: Visual Growth Reduction (%) 14 Days After Application, BRSNN

SMILES | pest or weed control at 70 g/ha
COC(=O)c1nc(-c2cc(F)c(C)cc2F)nc(N)c1OC [Compound 185] | 30 to 44%

same assay, conditions: post-emergence, 336 h; BRSNN: oilseed-rape, canola (Brassica napus); application rate 140 g ai/ha; post-emergent; 14 days after application; read-out: Visual Growth Reduction (%) 14 Days After Application, BRSNN

SMILES | pest or weed control at 140 g/ha
COC(=O)c1nc(-c2cc(F)c(C)cc2F)nc(N)c1OC [Compound 185] | 45 to 59%

same assay, conditions: post-emergence, 336 h; CHEAL: lambsquarters (Chenopodium album); application rate 70 g ai/ha; post-emergent; 14 days after application; read-out: Visual Growth Reduction (%) 14 Days After Application, CHEAL

SMILES | pest or weed control at 70 g/ha
COC(=O)c1nc(-c2cc(F)c(C)cc2F)nc(N)c1OC [Compound 185] | 60 to 74%

same assay, conditions: post-emergence, 336 h; CHEAL: lambsquarters (Chenopodium album); application rate 140 g ai/ha; post-emergent; 14 days after application; read-out: Visual Growth Reduction (%) 14 Days After Application, CHEAL

SMILES | pest or weed control at 140 g/ha
COC(=O)c1nc(-c2cc(F)c(C)cc2F)nc(N)c1OC [Compound 185] | 95 to 100%

same assay, conditions: post-emergence, 336 h; EPHHL: wild poinsettia (Euphorbia heterophylla); application rate 70 g ai/ha; post-emergent; 14 days after application; read-out: Visual Growth Reduction (%) 14 Days After Application, EPHHL

SMILES | pest or weed control at 70 g/ha
COC(=O)c1nc(-c2cc(F)c(C)cc2F)nc(N)c1OC [Compound 185] | 75 to 84%

same assay, conditions: post-emergence, 336 h; EPHHL: wild poinsettia (Euphorbia heterophylla); application rate 140 g ai/ha; post-emergent; 14 days after application; read-out: Visual Growth Reduction (%) 14 Days After Application, EPHHL

SMILES | pest or weed control at 140 g/ha
COC(=O)c1nc(-c2cc(F)c(C)cc2F)nc(N)c1OC [Compound 185] | 85 to 94%

same assay, conditions: post-emergence, 336 h; HELAN: sunflower (Helianthus annuus); application rate 70 g ai/ha; post-emergent; 14 days after application; read-out: Visual Growth Reduction (%) 14 Days After Application, HELAN

SMILES | pest or weed control at 70 g/ha
COC(=O)c1nc(-c2cc(F)c(C)cc2F)nc(N)c1OC [Compound 185] | 75 to 84%

same assay, conditions: post-emergence, 336 h; HELAN: sunflower (Helianthus annuus); application rate 140 g ai/ha; post-emergent; 14 days after application; read-out: Visual Growth Reduction (%) 14 Days After Application, HELAN

SMILES | pest or weed control at 140 g/ha
COC(=O)c1nc(-c2cc(F)c(C)cc2F)nc(N)c1OC [Compound 185] | 85 to 94%

same assay, conditions: post-emergence, 336 h; VIOTR: wild pansy (Viola tricolor); application rate 70 g ai/ha; post-emergent; 14 days after application; read-out: Visual Growth Reduction (%) 14 Days After Application, VIOTR

SMILES | pest or weed control at 70 g/ha
COC(=O)c1nc(-c2cc(F)c(C)cc2F)nc(N)c1OC [Compound 185] | 0 to 29%

same assay, conditions: post-emergence, 336 h; VIOTR: wild pansy (Viola tricolor); application rate 140 g ai/ha; post-emergent; 14 days after application; read-out: Visual Growth Reduction (%) 14 Days After Application, VIOTR

SMILES | pest or weed control at 140 g/ha
COC(=O)c1nc(-c2cc(F)c(C)cc2F)nc(N)c1OC [Compound 185] | 0 to 29%

test system: Key Grass and Sedge Weeds as well as Grass Crops; test: Post-emergent Test II herbicidal activity (Table 6); assay type: in vivo; details: post-emergence, 336 h, CYPES: yellow nutsedge (Cyperus esculentus), application rate 70 g ai/ha, read-out: Visual Growth Reduction (%) 14 Days After Application, CYPES
Method in brief: as §1

SMILES | pest or weed control at 70 g/ha
COC(=O)c1nc(-c2cc(F)c(C)cc2F)nc(N)c1OC [Compound 185] | 0 to 29%

same assay, conditions: post-emergence, 336 h, CYPES: yellow nutsedge (Cyperus esculentus), application rate 140 g ai/ha, read-out: Visual Growth Reduction (%) 14 Days After Application, CYPES

SMILES | pest or weed control at 140 g/ha
COC(=O)c1nc(-c2cc(F)c(C)cc2F)nc(N)c1OC [Compound 185] | 0 to 29%

same assay, conditions: post-emergence, 336 h, DIGSA: crabgrass (Digitaria sanguinalis), application rate 70 g ai/ha, read-out: Visual Growth Reduction (%) 14 Days After Application, DIGSA

SMILES | pest or weed control at 70 g/ha
COC(=O)c1nc(-c2cc(F)c(C)cc2F)nc(N)c1OC [Compound 185] | 0 to 29%

same assay, conditions: post-emergence, 336 h, DIGSA: crabgrass (Digitaria sanguinalis), application rate 140 g ai/ha, read-out: Visual Growth Reduction (%) 14 Days After Application, DIGSA

SMILES | pest or weed control at 140 g/ha
COC(=O)c1nc(-c2cc(F)c(C)cc2F)nc(N)c1OC [Compound 185] | 0 to 29%

same assay, conditions: post-emergence, 336 h, ECHCG: barnyardgrass (Echinochloa crus-galli), application rate 70 g ai/ha, read-out: Visual Growth Reduction (%) 14 Days After Application, ECHCG

SMILES | pest or weed control at 70 g/ha
COC(=O)c1nc(-c2cc(F)c(C)cc2F)nc(N)c1OC [Compound 185] | 0 to 29%

same assay, conditions: post-emergence, 336 h, ECHCG: barnyardgrass (Echinochloa crus-galli), application rate 140 g ai/ha, read-out: Visual Growth Reduction (%) 14 Days After Application, ECHCG

SMILES | pest or weed control at 140 g/ha
COC(=O)c1nc(-c2cc(F)c(C)cc2F)nc(N)c1OC [Compound 185] | 0 to 29%

same assay, conditions: post-emergence, 336 h, ORYSA: rice (Oryza sativa), application rate 70 g ai/ha, read-out: Visual Growth Reduction (%) 14 Days After Application, ORYSA

SMILES | pest or weed control at 70 g/ha
COC(=O)c1nc(-c2cc(F)c(C)cc2F)nc(N)c1OC [Compound 185] | 0 to 29%

same assay, conditions: post-emergence, 336 h, ORYSA: rice (Oryza sativa), application rate 140 g ai/ha, read-out: Visual Growth Reduction (%) 14 Days After Application, ORYSA

SMILES | pest or weed control at 140 g/ha
COC(=O)c1nc(-c2cc(F)c(C)cc2F)nc(N)c1OC [Compound 185] | 0 to 29%

same assay, conditions: post-emergence, 336 h, SETFA: giant foxtail (Setaria faberi), application rate 70 g ai/ha, read-out: Visual Growth Reduction (%) 14 Days After Application, SETFA

SMILES | pest or weed control at 70 g/ha
COC(=O)c1nc(-c2cc(F)c(C)cc2F)nc(N)c1OC [Compound 185] | 0 to 29%

same assay, conditions: post-emergence, 336 h, SETFA: giant foxtail (Setaria faberi), application rate 140 g ai/ha, read-out: Visual Growth Reduction (%) 14 Days After Application, SETFA

SMILES | pest or weed control at 140 g/ha
COC(=O)c1nc(-c2cc(F)c(C)cc2F)nc(N)c1OC [Compound 185] | 0 to 29%

same assay, conditions: post-emergence, 336 h, SORVU: grain sorghum (Sorghum vulgare), application rate 70 g ai/ha, read-out: Visual Growth Reduction (%) 14 Days After Application, SORVU

SMILES | pest or weed control at 70 g/ha
COC(=O)c1nc(-c2cc(F)c(C)cc2F)nc(N)c1OC [Compound 185] | 0 to 29%

same assay, conditions: post-emergence, 336 h, SORVU: grain sorghum (Sorghum vulgare), application rate 140 g ai/ha, read-out: Visual Growth Reduction (%) 14 Days After Application, SORVU

SMILES | pest or weed control at 140 g/ha
COC(=O)c1nc(-c2cc(F)c(C)cc2F)nc(N)c1OC [Compound 185] | 0 to 29%

same assay, conditions: post-emergence, 336 h, TRZSS (wheat, Triticum aestivum), application rate 70 g ai/ha, read-out: Visual Growth Reduction (%) 14 Days After Application, TRZSS

SMILES | pest or weed control at 70 g/ha
COC(=O)c1nc(-c2cc(F)c(C)cc2F)nc(N)c1OC [Compound 185] | 0 to 29%

same assay, conditions: post-emergence, 336 h, TRZSS (wheat, Triticum aestivum), application rate 140 g ai/ha, read-out: Visual Growth Reduction (%) 14 Days After Application, TRZSS

SMILES | pest or weed control at 140 g/ha
COC(=O)c1nc(-c2cc(F)c(C)cc2F)nc(N)c1OC [Compound 185] | 0 to 29%

same assay, conditions: post-emergence, 336 h, ZEAMX: maize, corn (Zea mays), application rate 70 g ai/ha, read-out: Visual Growth Reduction (%) 14 Days After Application, ZEAMX

SMILES | pest or weed control at 70 g/ha
COC(=O)c1nc(-c2cc(F)c(C)cc2F)nc(N)c1OC [Compound 185] | 0 to 29%

same assay, conditions: post-emergence, 336 h, ZEAMX: maize, corn (Zea mays), application rate 140 g ai/ha, read-out: Visual Growth Reduction (%) 14 Days After Application, ZEAMX

SMILES | pest or weed control at 140 g/ha
COC(=O)c1nc(-c2cc(F)c(C)cc2F)nc(N)c1OC [Compound 185] | 0 to 29%

test system: not given; test: not given; details: not given

melting point | SMILES
163.4 to 164.8 °C | COC(=O)c1nc(-c2cc(F)c(C)cc2F)nc(N)c1OC [Compound 185]
